Laboratory results as given in BindingDB's records for doi:10.1016/j.bmc.2017.12.033 (University of Messina, 2018).

Experiments:
[1] = Inhibition of reverse transcriptase L100I mutant in HIV1 infected in human MT4 cells assessed as protection against virus induced cytotoxicity after 5 days by MTT assay
[2] = Inhibition of reverse transcriptase Y181C mutant in HIV1 infected in human MT4 cells assessed as protection against virus induced cytotoxicity after 5 days by MTT assay
[3] = Inhibition of reverse transcriptase E138K mutant in HIV1 infected in human MT4 cells assessed as protection against virus induced cytotoxicity after 5 days by MTT assay
[4] = Inhibition of reverse transcriptase K103N mutant in HIV1 infected in human MT4 cells assessed as protection against virus induced cytotoxicity after 5 days by MTT assay
[5] = Inhibition of reverse transcriptase Y188L mutant in HIV1 infected in human MT4 cells assessed as protection against virus induced cytotoxicity after 5 days by MTT assay
[6] = Inhibition of reverse transcriptase F227L/V106A double mutant in HIV1 infected in human MT4 cells assessed as protection against virus induced cytotoxicity after 5 days by MTT assay
[7] = Inhibition of reverse transcriptase K103N/Y181C double mutant in HIV1 infected in human MT4 cells assessed as protection against virus induced cytotoxicity after 5 days by MTT assay

Row | SMILES | EC50 [1] [nM] | EC50 [2] [nM] | EC50 [3] [nM] | EC50 [4] [nM] | EC50 [5] [nM] | EC50 [6] [nM] | EC50 [7] [nM]
1 | Cc1cc(C)cc(S(=O)(=O)n2c(SCC(=O)Nc3ccc(S(C)(=O)=O)cc3)nc3ccccc32)c1 | 88 | > 10600 | 150 | 1190 | > 10600 | > 770 | > 10600
2 | COC(=O)c1ccc(NC(=O)CSc2nc3ccccc3n2S(=O)(=O)c2cc(C)cc(C)c2)cc1 | 170 | > 8360 | 160 | 960 | > 8360 | > 8360 | > 8360
3 | Cc1ccc(NC(=O)CSc2nc3ccccc3n2S(=O)(=O)c2cc(C)cc(C)c2)cc1 | 240 | > 3130 | 160 | > 3130 | > 3130 | > 3130 | > 3130
4 | Cc1cc(C)cc(S(=O)(=O)n2c(OCC(=O)Nc3ccc(S(C)(=O)=O)cc3Cl)nc3ccccc32)c1 | 290 | 890 | 670 | > 33900 | > 228000 | 1820 | –
5 | Cc1cc(C)cc(S(=O)(=O)n2c(SCC(=O)Nc3ccc(S(N)(=O)=O)cc3)nc3ccccc32)c1 | 73 | > 27200 | 60 | 670 | 1560 | 1580 | > 27200
6 | Cc1cc(C)cc(S(=O)(=O)n2c(SCC(=O)Nc3ccc(C(=O)O)cc3)nc3ccccc32)c1 | 1820 | 23600 | 1350 | 11800 | > 124000 | > 124000 | > 124000
